How the values were obtained:
[1] = molecular target: T1, Protein deacetylase HDAC6 (Homo sapiens, UniProt Q9UBN7); assay: Inhibition of HDAC6 (unknown origin) using Ac-peptide as substrate preincubated for 15 mins followed by substrate addition by fluorescence assay
T1 sequence (Q9UBN7 whole entry): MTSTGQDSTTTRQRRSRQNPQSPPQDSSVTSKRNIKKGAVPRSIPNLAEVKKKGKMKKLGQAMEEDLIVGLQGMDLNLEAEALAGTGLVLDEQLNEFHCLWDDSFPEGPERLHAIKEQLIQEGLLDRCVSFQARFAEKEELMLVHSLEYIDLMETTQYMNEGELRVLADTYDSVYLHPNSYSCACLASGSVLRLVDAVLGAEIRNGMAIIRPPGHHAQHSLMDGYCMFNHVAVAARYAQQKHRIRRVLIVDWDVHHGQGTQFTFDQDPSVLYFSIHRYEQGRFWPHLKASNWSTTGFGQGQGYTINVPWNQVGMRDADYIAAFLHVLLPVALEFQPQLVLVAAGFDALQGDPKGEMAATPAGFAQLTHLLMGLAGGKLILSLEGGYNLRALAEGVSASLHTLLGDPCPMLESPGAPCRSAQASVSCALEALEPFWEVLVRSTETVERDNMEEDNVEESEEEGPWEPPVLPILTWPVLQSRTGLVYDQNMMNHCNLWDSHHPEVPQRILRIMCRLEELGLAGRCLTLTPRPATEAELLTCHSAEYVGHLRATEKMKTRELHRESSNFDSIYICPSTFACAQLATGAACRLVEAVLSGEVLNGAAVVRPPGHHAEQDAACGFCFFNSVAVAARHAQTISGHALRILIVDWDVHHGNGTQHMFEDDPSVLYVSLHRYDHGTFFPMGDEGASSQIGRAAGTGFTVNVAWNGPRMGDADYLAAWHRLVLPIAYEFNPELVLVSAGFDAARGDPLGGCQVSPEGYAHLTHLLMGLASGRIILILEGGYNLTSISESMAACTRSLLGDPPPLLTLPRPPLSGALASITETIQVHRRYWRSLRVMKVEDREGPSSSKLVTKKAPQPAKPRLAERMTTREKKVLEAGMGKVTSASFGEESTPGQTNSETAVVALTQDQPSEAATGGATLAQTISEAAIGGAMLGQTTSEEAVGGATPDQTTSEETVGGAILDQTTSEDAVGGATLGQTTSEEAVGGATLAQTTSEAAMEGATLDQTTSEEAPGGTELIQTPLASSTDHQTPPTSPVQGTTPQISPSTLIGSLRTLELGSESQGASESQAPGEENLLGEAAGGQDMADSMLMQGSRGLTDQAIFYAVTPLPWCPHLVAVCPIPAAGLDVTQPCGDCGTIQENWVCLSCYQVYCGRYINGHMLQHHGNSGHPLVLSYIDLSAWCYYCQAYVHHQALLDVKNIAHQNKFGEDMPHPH

Histone deacetylase 5 = Histone deacetylase 5 (Homo sapiens, UniProt Q9UQL6); assay: Inhibition of HDAC5 (unknown origin) using Ac-peptide as substrate preincubated for 15 mins followed by substrate addition by fluorescence assay
Histone deacetylase 5, sequence (Q9UQL6 whole entry): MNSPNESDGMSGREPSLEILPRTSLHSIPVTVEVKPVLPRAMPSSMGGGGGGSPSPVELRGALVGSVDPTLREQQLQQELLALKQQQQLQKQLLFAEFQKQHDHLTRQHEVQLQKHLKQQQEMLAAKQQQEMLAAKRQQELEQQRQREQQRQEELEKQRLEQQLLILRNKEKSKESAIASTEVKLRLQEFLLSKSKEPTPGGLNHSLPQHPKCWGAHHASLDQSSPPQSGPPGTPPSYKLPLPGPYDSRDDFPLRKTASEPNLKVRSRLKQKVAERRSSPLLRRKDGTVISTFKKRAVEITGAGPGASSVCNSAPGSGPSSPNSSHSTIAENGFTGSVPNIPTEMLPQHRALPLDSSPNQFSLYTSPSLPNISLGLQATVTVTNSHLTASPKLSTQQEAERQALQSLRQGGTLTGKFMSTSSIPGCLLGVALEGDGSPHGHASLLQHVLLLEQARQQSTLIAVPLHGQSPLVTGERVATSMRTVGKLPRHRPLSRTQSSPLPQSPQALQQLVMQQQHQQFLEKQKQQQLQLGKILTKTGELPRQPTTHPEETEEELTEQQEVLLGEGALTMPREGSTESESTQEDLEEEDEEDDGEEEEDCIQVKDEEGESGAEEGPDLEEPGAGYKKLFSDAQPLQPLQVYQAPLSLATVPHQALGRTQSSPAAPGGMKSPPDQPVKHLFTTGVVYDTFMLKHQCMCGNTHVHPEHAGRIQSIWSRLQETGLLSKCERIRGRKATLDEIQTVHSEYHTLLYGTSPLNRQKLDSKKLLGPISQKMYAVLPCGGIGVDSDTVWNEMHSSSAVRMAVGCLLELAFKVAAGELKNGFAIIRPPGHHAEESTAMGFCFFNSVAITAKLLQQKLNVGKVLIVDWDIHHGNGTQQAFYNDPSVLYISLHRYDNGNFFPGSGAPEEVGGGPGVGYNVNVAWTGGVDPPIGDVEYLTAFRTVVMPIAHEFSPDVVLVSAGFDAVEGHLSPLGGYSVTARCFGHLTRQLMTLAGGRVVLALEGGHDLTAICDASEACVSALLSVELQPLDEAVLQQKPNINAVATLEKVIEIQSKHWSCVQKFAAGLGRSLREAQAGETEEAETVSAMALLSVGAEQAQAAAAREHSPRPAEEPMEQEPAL

HCT-116 = assay: cells; conditions: Homo sapiens, HCT-116, 72 h
Histone deacetylase 1 = Histone deacetylase 1 (Homo sapiens, UniProt Q13547); assay: Inhibition of HDAC1 (unknown origin) using Ac-peptide as substrate preincubated for 15 mins followed by substrate addition by fluorescence assay
Histone deacetylase 1, sequence (Q13547 whole entry, the tested form may be a part): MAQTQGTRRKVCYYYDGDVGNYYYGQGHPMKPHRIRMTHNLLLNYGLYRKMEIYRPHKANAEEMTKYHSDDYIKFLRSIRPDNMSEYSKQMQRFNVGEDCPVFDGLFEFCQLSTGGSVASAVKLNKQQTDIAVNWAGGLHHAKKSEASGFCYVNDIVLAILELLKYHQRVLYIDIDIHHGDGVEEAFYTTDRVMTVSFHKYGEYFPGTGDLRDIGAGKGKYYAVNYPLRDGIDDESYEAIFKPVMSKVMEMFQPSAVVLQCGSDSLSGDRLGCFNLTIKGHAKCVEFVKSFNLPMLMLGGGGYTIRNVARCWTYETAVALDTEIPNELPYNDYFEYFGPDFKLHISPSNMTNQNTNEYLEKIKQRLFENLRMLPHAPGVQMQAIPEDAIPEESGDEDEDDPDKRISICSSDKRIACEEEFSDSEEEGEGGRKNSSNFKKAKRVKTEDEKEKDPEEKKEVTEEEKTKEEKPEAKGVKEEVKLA

[2] = molecular target: T2, Lysine-specific histone demethylase 1A (Homo sapiens, UniProt O60341); assay: Inhibition of recombinant LSD1 (157 to 852 residues) (unknown origin) expressed in Escherichia coli BL21 (DE) using H3K4me2 as substrate by amplex red assay
MGC-803 [3] = assay: cells; conditions: Homo sapiens, MGC-803, 72 h
MKN-1 = assay: cells; conditions: Homo sapiens, MKN-1, 72 h
SNU1 = assay: cells; conditions: Homo sapiens, SNU1, 72 h
AGS = assay: cells; conditions: Homo sapiens, 72 h
MKN-45 = assay: cells; conditions: Homo sapiens, MKN-45, 72 h
BGC-823 = assay: cells; conditions: Homo sapiens, BGC-823, 72 h
NCI-N87 = assay: cells; conditions: Homo sapiens, NCI-N87, 72 h
[4] = molecular target: T2, Lysine-specific histone demethylase 1A; assay: Inhibition of recombinant LSD1 (157 to 852 residues) (unknown origin) expressed in Escherichia coli BL21 (DE) at 10 uM using H3K4me2 as substrate by amplex red assay relative to control
Histone deacetylase 2 = Histone deacetylase 2 (Homo sapiens, UniProt Q92769)
Histone deacetylase 2, sequence (Q92769 whole entry): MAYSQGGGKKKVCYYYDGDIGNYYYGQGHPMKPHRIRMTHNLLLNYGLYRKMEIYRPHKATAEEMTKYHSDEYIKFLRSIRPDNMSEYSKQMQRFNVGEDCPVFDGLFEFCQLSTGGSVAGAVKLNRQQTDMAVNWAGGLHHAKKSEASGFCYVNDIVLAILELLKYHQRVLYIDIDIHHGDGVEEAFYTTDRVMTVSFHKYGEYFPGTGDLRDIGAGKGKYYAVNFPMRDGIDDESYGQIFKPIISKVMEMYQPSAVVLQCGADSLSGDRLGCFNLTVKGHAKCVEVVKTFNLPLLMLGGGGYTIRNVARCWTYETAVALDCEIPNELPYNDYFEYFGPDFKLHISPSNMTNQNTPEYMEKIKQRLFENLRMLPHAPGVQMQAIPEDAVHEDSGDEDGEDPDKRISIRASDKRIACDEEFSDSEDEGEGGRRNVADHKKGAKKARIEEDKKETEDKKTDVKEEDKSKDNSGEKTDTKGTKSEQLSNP

CYP1A2 = molecular target: T3, CYP1A2 (Homo sapiens, UniProt P05177); assay: in vitro; conditions: probe phenacetin
T3 sequence (P05177 whole entry): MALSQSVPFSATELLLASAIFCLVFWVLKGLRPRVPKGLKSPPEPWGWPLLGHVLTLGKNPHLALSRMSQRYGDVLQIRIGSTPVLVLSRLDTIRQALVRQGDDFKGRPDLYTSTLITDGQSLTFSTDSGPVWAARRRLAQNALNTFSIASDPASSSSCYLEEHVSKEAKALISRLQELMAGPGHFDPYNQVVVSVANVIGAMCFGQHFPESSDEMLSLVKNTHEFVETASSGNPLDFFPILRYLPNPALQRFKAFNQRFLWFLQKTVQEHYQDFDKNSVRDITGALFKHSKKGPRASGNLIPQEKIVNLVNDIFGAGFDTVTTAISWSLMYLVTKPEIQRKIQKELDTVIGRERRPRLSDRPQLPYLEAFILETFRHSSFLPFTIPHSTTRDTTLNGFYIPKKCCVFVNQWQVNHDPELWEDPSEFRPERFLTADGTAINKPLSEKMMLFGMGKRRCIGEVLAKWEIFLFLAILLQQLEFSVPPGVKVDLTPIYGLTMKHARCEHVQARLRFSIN

MGC-803 [5] = assay: Induction of apoptosis in human MGC-803 cells assessed as apoptotic cells at 5 uM incubated for 48 hrs by annexin V-FITC and PI staining based flowcytometry analysis (Rvb =4.3 %); format: functional
MGC-803 [6] = assay: Antiproliferative activity against human MGC-803 cells assessed as reduction in cell viability at 10 uM after 72 hrs by CellTiter-Glo assay; format: functional
CYP2C9 = CYP2C9 (Homo sapiens, UniProt P11712); assay: in vitro; conditions: probe diclofenac
CYP2C9, sequence (P11712 whole entry): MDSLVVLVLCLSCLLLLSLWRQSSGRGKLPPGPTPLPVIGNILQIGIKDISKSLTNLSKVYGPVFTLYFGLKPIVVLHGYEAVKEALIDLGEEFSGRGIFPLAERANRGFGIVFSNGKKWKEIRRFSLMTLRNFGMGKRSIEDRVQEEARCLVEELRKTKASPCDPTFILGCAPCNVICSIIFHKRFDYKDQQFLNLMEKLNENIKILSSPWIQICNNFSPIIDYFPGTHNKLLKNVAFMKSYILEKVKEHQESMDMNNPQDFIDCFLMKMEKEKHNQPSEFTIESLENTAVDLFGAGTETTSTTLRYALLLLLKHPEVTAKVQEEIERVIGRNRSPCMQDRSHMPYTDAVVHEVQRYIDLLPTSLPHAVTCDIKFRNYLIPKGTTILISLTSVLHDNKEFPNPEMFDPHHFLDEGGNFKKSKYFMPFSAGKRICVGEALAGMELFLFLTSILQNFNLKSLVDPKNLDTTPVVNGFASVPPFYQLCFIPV

Row | IC50 [1] | IC50 (Histone deacetylase 5) | IC50 (HCT-116) | IC50 (Histone deacetylase 1) | IC50 [2] | IC50 (MGC-803 [3]) | Compound | further results
1 | 0.15 µM | > 10 µM | 2.99 µM | 1.07 µM | 3.06 µM | 2.24 µM | Cc1ccc(-c2cncc(/C=C/c3ccc(C(=O)NO)cc3)c2)c(F)c1 | –
2 | – | – | – | – | – | – | N[C@H]1CC[C@H](N[C@@H]2C[C@H]2c2ccccc2)CC1 | IC50 (MKN-1): > 50 µM; IC50 (SNU1): > 50 µM; IC50 (AGS): > 50 µM; IC50 (MKN-45): > 50 µM; IC50 (BGC-823): > 50 µM; IC50 (NCI-N87): > 50 µM
3 | – | – | – | – | – | – | C/C(=N\NC(=O)c1cccc(S(=O)(=O)N2CCOCC2)c1)c1cc(Cl)ccc1O | IC50 (MKN-1): 8.98 µM; IC50 (SNU1): 8.03 µM; IC50 (AGS): 6.19 µM; IC50 (MKN-45): 26.7 µM; IC50 (BGC-823): 8.08 µM; IC50 (NCI-N87): 10.5 µM
4 | – | – | > 10 µM | 2.95 µM | – | > 10 µM | O=C(NO)c1ccc(/C=C/c2cc(-c3ccc(C(F)(F)F)cc3)ncc2F)cc1 | inhibition [4]: 5.6%
5 | 0.39 µM | > 10 µM | 3.36 µM | 1.47 µM | 2.26 µM | 2.81 µM | O=C(NO)c1cccc(/C=C/c2ccnc(-c3ccccc3O)c2)c1 | IC50 (Histone deacetylase 2): 1.87 µM
6 | – | – | > 10 µM | – | – | > 10 µM | O=C(NO)c1ccc(/C=C/c2cncc(-c3ccc(C(F)(F)F)cc3)c2)cc1 | inhibition [4]: 5.6%
7 | – | – | > 10 µM | 1.18 µM | – | > 10 µM | Cc1ccc(-c2cc(/C=C/c3ccc(C(=O)NO)cc3)c(F)cn2)cc1 | inhibition [4]: 20.7%
8 | 0.028 µM | > 10 µM | 8.44 µM | 1.04 µM | 1.07 µM | 6.35 µM | COc1ccccc1-c1cc(/C=C/c2ccc(C(=O)NO)cc2)ccn1 | –
9 | 0.11 µM | > 10 µM | 3.56 µM | 0.69 µM | 1.9 µM | 3.51 µM | COc1ccc(-c2cc(/C=C/c3ccc(C(=O)NO)cc3)ccn2)cc1 | –
10 | – | – | 1.67 µM | 0.88 µM | – | 2.51 µM | Cc1ccc(-c2cc(/C=C/c3ccc(C(=O)NO)cc3)c(F)cn2)c(F)c1 | inhibition [4]: 55.2%
11 | – | – | > 10 µM | – | – | > 10 µM | O=C(NO)c1ccc(/C=C/c2ccnc(-c3ccc(F)cc3)c2)cc1 | inhibition [4]: 21.2%
12 | 0.019 µM | > 10 µM | 1.61 µM | 0.29 µM | 1.83 µM | 2.1 µM | O=C(NO)c1ccc(/C=C/c2ccnc(-c3cccc(O)c3)c2)cc1 | –
13 | – | – | > 10 µM | 4.84 µM | – | > 10 µM | O=C(NO)c1ccc(/C=C/c2ccnc(-c3ccc(C(F)(F)F)cc3)c2)cc1 | inhibition [4]: 33%
14 | 0.054 µM | > 10 µM | 1.91 µM | 0.21 µM | 2.03 µM | 3.68 µM | O=C(NO)c1ccc(/C=C/c2ccnc(-c3ccsc3)c2)cc1 | –
15 | – | – | > 10 µM | 43.6 µM | – | > 10 µM | Cc1ccc(-c2cncc(/C=C/c3ccc(C(=O)NO)cc3)c2)cc1 | inhibition [4]: 29.8%
16 | 0.32 µM | > 10 µM | > 10 µM | 3.66 µM | 1.02 µM | > 10 µM | O=C(NO)c1ccc(/C=C/c2ccnc(Br)c2)cc1 | –

Row | IC50 [1] | IC50 (Histone deacetylase 5) | IC50 (HCT-116) | IC50 (Histone deacetylase 1) | IC50 [2] | IC50 (MGC-803 [3]) | Compound | further results
17 | 0.13 µM | 9.34 µM | 2.04 µM | 1.14 µM | 2.2 µM | 1.92 µM | O=C(NO)c1ccc(/C=C/c2ccnc(-c3cc(F)ccc3O)c2)cc1 | –
18 | 0.2 µM | > 10 µM | > 10 µM | 1.24 µM | 3.65 µM | 8.82 µM | O=C(NO)c1ccc(/C=C/c2cccc(-c3cccc(O)c3)c2)cc1 | –
19 | – | – | – | – | – | – | O=c1cc(-c2ccccc2)oc2c1ccc1ccccc12 [ALPHA-NAPHTHOFLAVONE] | inhibition at 0.2 µM (CYP1A2): 90.9%
20 | 0.4 µM | > 10 µM | 3.89 µM | 1.51 µM | – | 2.71 µM | O=C(NO)c1cccc(/C=C/c2ccnc(-c3cc(F)ccc3O)c2)c1 | IC50 (Histone deacetylase 2): 2.06 µM
21 | 0.093 µM | > 10 µM | 3.41 µM | 0.67 µM | 1.6 µM | 3.36 µM | COc1ccc(F)cc1-c1cncc(/C=C/c2ccc(C(=O)NO)cc2)c1 | –
22 | 0.15 µM | > 10 µM | 2.39 µM | 0.96 µM | 2.7 µM | 1.91 µM | Cc1ccc(-c2cc(/C=C/c3ccc(C(=O)NO)cc3)ccn2)cc1 | –
23 | 0.014 µM | > 10 µM | 5.14 µM | 0.58 µM | 1.37 µM | 4.55 µM | O=C(NO)c1ccc(/C=C/c2ccnc(-c3cccnc3)c2)cc1 | –
24 | 0.13 µM | > 10 µM | 3.91 µM | 0.63 µM | 0.85 µM | 3.93 µM | O=C(NO)c1ccc(/C=C/c2ccncc2)cc1 | –
25 | – | – | 1.85 µM | – | – | 1.54 µM | O=C(CCCCCCC(=O)Nc1ccccc1)NO [VORINOSTAT] | Activity (MGC-803 [5]): 73.8%
26 | 0.18 µM | > 10 µM | 4.23 µM | 0.93 µM | 1.95 µM | 5.99 µM | O=C(NO)c1ccc(/C=C/c2cccc(-c3ccccc3O)c2)cc1 | –
27 | – | – | > 10 µM | 0.47 µM | – | > 10 µM | O=C(/C=C/c1ccc(/C=C/c2ccnc(-c3ccccc3O)c2)cc1)NO | inhibition [4]: 22.9%
28 | 0.013 µM | > 10 µM | 4.68 µM | 3.37 µM | 0.51 µM | 5.46 µM | O=C(NO)c1ccc(/C=C/c2cncc(-c3ccccc3O)c2)cc1 | –
29 | 0.24 µM | > 10 µM | > 10 µM | 2.12 µM | 3.51 µM | > 10 µM | O=C(NO)c1ccc(/C=C/c2cccc(-c3cc(F)ccc3O)c2)cc1 | –
30 | 0.034 µM | > 10 µM | 1.7 µM | 0.28 µM | 1.14 µM | 1.74 µM | O=C(NO)c1ccc(/C=C/c2ccnc(-c3cccc(CO)c3)c2)cc1 | –
31 | – | – | – | – | – | – | N/C(=N\O)c1cccc(/C=C/c2ccnc(-c3cc(F)ccc3O)c2)c1 | inhibition at 10 µM (MGC-803 [6]): 35.3%
32 | – | – | – | – | – | – | Nc1ccc(S(=O)(=O)Nc2ccnn2-c2ccccc2)cc1 [SULFAPHENAZOLE] | inhibition at 1 µM (CYP2C9): 79.9%

— ChEMBL document CHEMBL5038581, “Design, synthesis, and biological evaluation of novel dual inhibitors targeting lysine specific demethylase 1 (LSD1) and histone deacetylases (HDAC) for treatment of gastric cancer” (Eur J Med Chem, 2021)
